Laboratory results published in patent publication US8093249B2, “Pyrazolo[1,5-A]pyrimidine-carbonyl-piperazine derivatives” (Convergence Pharmaceuticals Limited, priority 2008, dated 2012).
Like-named read-outs stand apart in the source and are kept apart here.

Molecular target: T1, hCaV2.2 (Homo sapiens, UniProt Q00975)
T1 construct: expressed in transfected cells; plasmids pCIN5-hCaV2.2, pCIH-hCaV β3, pCIP-α2δ1
Experiment: hCaV2.2 assay (IonWorks planar array electrophysiology, HEK293 stable cell line)
Assay type: cell-based
Conditions: inhibition of current elicited by the 1st depolarizing pulse by 50%, HEK293 cells expressing human CaV2.2 α/β3/α2δ1
Source text: Compounds of the invention may be tested for in vitro biological activity in the hCaV2.2 assay in accordance with the following studies:
Stable cell lines expressing the human CaV2.2 α (α1B) subunit, along with the human β3 and α2δ1 auxillary subunits were created following sequential transfection and selection of human embryonic kidney (HEK293) cells. […] Initially HEK293 cells were transfected with two plasmid vectors for expression of the hCaV2.2 α subunit (pCIN5-hCaV2.2 which carries a neomycin resistance marker) and the hCaV β3 subunit (pCIH-hCaV β3 which carries a hygromycin resistance marker). […] These clonal cell lines were assessed for Cav2.2 α/β3-mediated current expression using the IonWorks planar array electrophysiology technology (described below). […] Expression of all three subunits within this cell line was continuously maintained by the inclusion of G418 (0.4 mg ml^−1), hygromycin (0.1 mg ml^−1) and puromycin (0.62 μg ml^−1). Cells were maintained at 37° C. in a humidified environment containing 5% CO2 in air.
Cells were grown to 30-60% confluence in T175 flasks and maintained at 30° C. for 24 hours prior to recording. […] Lifted cells were suspended in 10 ml of extracellular buffer. Cell suspension was then placed into a 15 ml tube and centrifuged for 2 minutes at 700 rpm. After centrifugation, the supernatant was removed and the cell pellet was resuspended in 4.5 ml of extracellular solution.
Currents were recorded at room temperature (21-23° C.) using the IonWorks planar array electrophysiology technology (Molecular Devices Corp.). Stimulation protocols and data acquisition were carried out using a microcomputer (Dell Pentium 4). In order to determine planar electrode hole resistances (Rp), a 10 mV, 160 ms potential difference was applied across each hole. These measurements were performed before cell addition. After cell addition a seal test was performed prior to antibiotic (amphotericin) circulation to achieve intracellular access. Leak subtraction was conducted in all experiments by applying a 160 ms hyperpolarizing (10 mV) prepulse 200 ms before the test pulses to measure leak conductance. Test pulses stepping from the holding potential (VH) of −90 mV to +10 mV were applied for 20 ms and repeated 10 times at a frequency of 10 Hz. In all experiments, the test pulse protocol was performed in the absence (pre-read) and presence (post-read) of a compound. Pre- and post-reads were separated by a compound addition followed by a 3-3.5 min incubation.
The intracellular solution contained the following (in mM): K-gluconate 120, KCl 20 mM, MgCl2 5, EGTA 5, HEPES 10, adjusted to pH 7.3. Amphotericin was prepared as 30 mg/ml stock solution and diluted to a final working concentration of 0.2 mg ml^−1 in intracellular buffer solution. The extracellular solution contained the following (in mM): Na-gluconate 120, NaCl 20, MgCl2 1, HEPES 10, BaCl2 5, adjusted to pH 7.4.
Finally the compounds were diluted 1:100 in external solution resulting in a final DMSO concentration of 1%.
Paired comparisons between pre-compound and post-compound additions were used to determine the inhibitory effect of each compound. […] In addition the use-dependent inhibitory properties of the compounds were determined by assessing the effect of compounds on the 10th versus 1st depolarizing pulse. The ratio of the 10th over 1st pulse was determined in the absence and presence of drug and the % use-dependent inhibition calculated.
Compounds were tested in the form as described in the Examples. […] Variations in pUD30 and pIC50 values may arise between tests.

[1] = read-out: mean pIC50 value (tonic pIC50) (converted)

T1 sequence (Q00975 whole entry): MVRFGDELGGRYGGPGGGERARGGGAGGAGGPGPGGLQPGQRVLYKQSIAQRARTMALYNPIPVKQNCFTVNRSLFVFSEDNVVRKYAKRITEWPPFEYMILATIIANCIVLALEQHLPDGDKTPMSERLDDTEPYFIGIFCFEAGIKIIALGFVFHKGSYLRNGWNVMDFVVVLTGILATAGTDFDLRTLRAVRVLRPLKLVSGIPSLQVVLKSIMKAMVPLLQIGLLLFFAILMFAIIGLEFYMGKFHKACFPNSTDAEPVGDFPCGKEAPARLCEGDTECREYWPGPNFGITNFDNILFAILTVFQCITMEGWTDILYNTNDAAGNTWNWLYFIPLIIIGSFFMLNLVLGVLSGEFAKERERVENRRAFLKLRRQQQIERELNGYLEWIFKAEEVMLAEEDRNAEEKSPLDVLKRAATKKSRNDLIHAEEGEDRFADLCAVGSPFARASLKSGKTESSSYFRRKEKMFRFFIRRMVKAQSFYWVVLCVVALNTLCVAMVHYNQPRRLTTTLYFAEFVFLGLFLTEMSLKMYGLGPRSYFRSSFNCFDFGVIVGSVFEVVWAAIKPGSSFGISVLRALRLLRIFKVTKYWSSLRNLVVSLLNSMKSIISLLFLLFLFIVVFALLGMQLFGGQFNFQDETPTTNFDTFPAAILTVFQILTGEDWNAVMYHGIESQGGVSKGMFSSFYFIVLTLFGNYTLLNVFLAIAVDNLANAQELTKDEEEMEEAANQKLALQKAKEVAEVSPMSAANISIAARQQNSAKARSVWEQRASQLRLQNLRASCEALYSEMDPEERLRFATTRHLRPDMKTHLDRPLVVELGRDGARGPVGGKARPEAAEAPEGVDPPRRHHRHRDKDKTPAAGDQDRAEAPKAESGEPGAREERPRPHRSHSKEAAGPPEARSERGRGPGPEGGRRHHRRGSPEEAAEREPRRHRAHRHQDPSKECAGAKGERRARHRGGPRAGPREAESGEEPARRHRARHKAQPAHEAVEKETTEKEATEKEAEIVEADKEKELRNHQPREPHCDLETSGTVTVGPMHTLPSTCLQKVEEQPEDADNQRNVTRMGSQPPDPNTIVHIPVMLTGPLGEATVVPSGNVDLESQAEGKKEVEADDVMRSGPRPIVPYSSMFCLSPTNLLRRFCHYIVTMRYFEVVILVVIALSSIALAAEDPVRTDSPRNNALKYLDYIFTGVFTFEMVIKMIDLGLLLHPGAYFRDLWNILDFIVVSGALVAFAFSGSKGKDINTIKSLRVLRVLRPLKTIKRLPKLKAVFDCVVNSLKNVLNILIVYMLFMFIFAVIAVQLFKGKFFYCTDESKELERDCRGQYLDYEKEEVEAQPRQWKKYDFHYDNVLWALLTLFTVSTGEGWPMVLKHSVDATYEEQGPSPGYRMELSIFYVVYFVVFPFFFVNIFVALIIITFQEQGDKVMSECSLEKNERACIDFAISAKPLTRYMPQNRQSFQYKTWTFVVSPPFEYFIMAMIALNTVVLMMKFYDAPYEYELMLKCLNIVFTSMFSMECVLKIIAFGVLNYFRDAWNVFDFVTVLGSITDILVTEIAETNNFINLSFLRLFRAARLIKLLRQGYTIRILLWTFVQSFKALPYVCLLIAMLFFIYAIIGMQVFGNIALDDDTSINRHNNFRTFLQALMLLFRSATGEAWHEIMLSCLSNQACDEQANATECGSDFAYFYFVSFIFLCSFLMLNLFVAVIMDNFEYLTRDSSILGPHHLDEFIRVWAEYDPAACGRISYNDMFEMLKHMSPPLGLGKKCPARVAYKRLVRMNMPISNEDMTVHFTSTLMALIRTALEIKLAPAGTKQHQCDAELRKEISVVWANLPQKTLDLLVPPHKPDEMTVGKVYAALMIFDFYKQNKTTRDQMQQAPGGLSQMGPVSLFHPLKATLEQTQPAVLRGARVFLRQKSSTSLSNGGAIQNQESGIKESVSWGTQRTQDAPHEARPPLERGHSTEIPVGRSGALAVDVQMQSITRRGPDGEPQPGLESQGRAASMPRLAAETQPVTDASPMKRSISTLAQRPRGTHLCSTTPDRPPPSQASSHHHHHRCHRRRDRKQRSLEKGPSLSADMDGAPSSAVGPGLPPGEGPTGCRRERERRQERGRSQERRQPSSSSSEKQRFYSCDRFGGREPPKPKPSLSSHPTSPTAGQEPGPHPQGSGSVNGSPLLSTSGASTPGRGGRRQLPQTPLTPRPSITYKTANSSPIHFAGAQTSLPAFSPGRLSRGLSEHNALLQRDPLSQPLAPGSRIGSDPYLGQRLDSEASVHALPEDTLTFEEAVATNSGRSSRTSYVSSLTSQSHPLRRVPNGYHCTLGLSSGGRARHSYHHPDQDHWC
T1 sequence (P54284 whole entry partner): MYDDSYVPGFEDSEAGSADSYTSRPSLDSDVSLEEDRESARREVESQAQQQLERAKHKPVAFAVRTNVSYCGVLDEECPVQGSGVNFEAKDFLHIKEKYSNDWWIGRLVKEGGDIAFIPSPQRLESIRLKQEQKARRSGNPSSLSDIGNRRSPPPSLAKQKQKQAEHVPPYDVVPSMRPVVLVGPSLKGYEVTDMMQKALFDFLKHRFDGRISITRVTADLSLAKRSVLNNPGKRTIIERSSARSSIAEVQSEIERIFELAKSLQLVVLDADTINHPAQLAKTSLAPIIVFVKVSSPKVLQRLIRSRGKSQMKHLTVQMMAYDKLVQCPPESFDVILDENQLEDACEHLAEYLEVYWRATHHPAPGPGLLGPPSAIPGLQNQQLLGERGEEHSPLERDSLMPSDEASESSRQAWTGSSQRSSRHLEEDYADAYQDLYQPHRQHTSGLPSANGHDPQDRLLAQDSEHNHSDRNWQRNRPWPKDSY
T1 sequence (P54289 25-946 partner limits assumed): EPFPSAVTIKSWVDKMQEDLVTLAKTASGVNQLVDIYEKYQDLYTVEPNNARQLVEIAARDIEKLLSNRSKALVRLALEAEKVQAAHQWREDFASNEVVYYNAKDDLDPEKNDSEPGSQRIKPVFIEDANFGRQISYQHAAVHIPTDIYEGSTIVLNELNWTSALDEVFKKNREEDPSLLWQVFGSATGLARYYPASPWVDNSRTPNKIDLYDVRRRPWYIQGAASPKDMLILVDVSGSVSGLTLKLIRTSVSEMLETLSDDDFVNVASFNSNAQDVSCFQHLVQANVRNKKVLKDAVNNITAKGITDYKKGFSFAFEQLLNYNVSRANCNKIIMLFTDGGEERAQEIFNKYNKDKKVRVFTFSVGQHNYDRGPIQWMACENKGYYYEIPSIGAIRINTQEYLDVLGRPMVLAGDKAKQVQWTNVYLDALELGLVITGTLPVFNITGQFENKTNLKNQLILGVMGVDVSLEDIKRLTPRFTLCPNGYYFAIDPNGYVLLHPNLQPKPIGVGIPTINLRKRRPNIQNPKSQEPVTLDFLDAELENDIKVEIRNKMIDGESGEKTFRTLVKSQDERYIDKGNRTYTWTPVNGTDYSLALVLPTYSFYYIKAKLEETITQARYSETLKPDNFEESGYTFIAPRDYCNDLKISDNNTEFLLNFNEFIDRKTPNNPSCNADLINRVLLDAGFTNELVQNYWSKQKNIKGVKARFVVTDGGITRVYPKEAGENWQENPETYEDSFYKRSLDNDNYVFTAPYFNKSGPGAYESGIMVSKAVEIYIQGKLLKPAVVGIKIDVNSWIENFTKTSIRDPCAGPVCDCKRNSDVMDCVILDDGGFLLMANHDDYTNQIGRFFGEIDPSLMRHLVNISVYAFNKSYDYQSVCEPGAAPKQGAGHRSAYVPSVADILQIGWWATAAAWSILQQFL
T1 sequence (P54289 947-1103 partner limits assumed): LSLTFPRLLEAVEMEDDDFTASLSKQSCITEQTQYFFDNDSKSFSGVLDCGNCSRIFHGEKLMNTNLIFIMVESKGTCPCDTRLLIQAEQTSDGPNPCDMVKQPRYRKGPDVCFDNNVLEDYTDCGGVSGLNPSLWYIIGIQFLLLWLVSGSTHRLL

SMILES	IC50 [1]	IC50 (mean pIC50 value (tonic pIC50))
O=C(c1cnn2cccnc12)N1CCN(S(=O)(=O)c2ccc(C(F)(F)F)cc2)CC1 [Example 1, 3-[(4-{[4-(Trifluoromethyl)phenyl]sulfonyl}-1-piperazinyl)carbonyl]pyrazolo[1,5-a]pyrimidine]	≥ 31.6 µM	–
C[C@H]1CN(S(=O)(=O)c2ccc(C(F)(F)F)cc2)CCN1C(=O)c1cnn2cccnc12 [Example 2, 3-[((2S)-2-Methyl-4-{[4-(trifluoromethyl)phenyl]sulfonyl}-1-piperazinyl)carbonyl]pyrazolo[1,5-a]pyrimidine]	≥ 10 µM	–
C[C@@H]1CN(C(=O)c2cnn3cccnc23)CCN1S(=O)(=O)c1ccc(C(F)(F)F)cc1 [Example 3, 3-[((3R)-3-Methyl-4-{[4-(trifluoromethyl)phenyl]sulfonyl}-1-piperazinyl)carbonyl]pyrazolo[1,5-a]pyrimidine]	≥ 31.6 µM	–
C[C@H]1CN(C(=O)c2cnn3cccnc23)CCN1S(=O)(=O)c1ccc(C(F)(F)F)cc1 [Example 4, 3-[((3S)-3-Methyl-4-{[4-(trifluoromethyl)phenyl]sulfonyl}-1-piperazinyl)carbonyl]pyrazolo[1,5-a]pyrimidine]	≥ 31.6 µM	–
Cc1cc(C#N)ccc1S(=O)(=O)N1CCN(C(=O)c2cnn3cccnc23)[C@@H](C)C1 [Example 5, 3-Methyl-4-{[(3S)-3-methyl-4-(pyrazolo[1,5-a]pyrimidin-3-ylcarbonyl)-1-piperazinyl]sulfonyl}benzonitrile]	≥ 31.6 µM	–
Cc1cnc2c(C(=O)N3CCN(S(=O)(=O)c4ccc(C(F)(F)F)cc4)CC3)cnn2c1 [Example 6, 6-Methyl-3-[(4-{[4-(trifluoromethyl)phenyl]sulfonyl}-1-piperazinyl)carbonyl]pyrazolo[1,5-a]pyrimidine]	≥ 31.6 µM	–
C[C@@H]1CN(S(=O)(=O)c2ccc(C(F)(F)F)cc2)CCN1C(=O)c1cnn2cccnc12 [Example 7, 3-[((2R)-2-Methyl-4-{[4-(trifluoromethyl)phenyl]sulfonyl}-1-piperazinyl)carbonyl]pyrazolo[1,5-a]pyrimidine]	≥ 31.6 µM	–
O=C(c1cnn2cccnc12)N1CCN(S(=O)(=O)c2ccc(OC(F)(F)F)cc2)CC1 [Example 8, 3-{[4-({4-[(trifluoromethyl)oxy]phenyl}sulfonyl)-1-piperazinyl]carbonyl}pyrazolo[1,5-a]pyrimidine]	≥ 31.6 µM	–
C[C@H]1CN(S(=O)(=O)c2ccc(C(F)(F)F)cc2)CCN1C(=O)c1cnn2cc(F)cnc12 [Example 9, 6-Fluoro-3-[((2S)-2-methyl-4-{[4-(trifluoromethyl)phenyl]sulfonyl}-1-piperazinyl)carbonyl]pyrazolo[1,5-a]pyrimidine]	≥ 10 µM	–
Cc1cc(C#N)ccc1S(=O)(=O)N1CCN(C(=O)c2cnn3cc(F)cnc23)[C@@H](C)C1 [Example 10, 4-({(3S)-4-[(6-fluoropyrazolo[1,5-a]pyrimidin-3-yl)carbonyl]-3-methyl-1-piperazinyl}sulfonyl)-3-methylbenzonitrile]	–	≥ 31.6 µM
C[C@H]1CN(S(=O)(=O)c2ccc(OC(F)(F)F)cc2)CCN1C(=O)c1cnn2cccnc12 [Example 11, 3-{[(2S)-2-methyl-4-({4-[(trifluoromethyl)oxy]phenyl}sulfonyl)-1-piperazinyl]carbonyl}pyrazolo[1,5-a]pyrimidine]	≥ 31.6 µM	–
Cc1cc(C)n2ncc(C(=O)N3CCN(S(=O)(=O)c4ccc(C(F)(F)F)cc4)CC3)c2n1 [Example 14, 5,7-dimethyl-3-[(4-{[4-(trifluoromethyl)phenyl]sulfonyl}-1-piperazinyl)carbonyl]pyrazolo[1,5-a] pyrimidine]	≥ 31.6 µM	–
C[C@H]1CN(C(=O)c2cnn3cccnc23)CCN1S(=O)(=O)c1ccc(OC(F)(F)F)cc1 [Example 15, 3-{[(3S)-3-methyl-4-({4-[(trifluoromethyl)oxy]phenyl}sulfonyl)-1-piperazinyl]carbonyl}pyrazolo[1,5-a] pyrimidine]	≥ 31.6 µM	–
Cc1cc(C#N)ccc1S(=O)(=O)N1CCN(C(=O)c2cnn3cc(Cl)cnc23)[C@@H](C)C1 [Example 16, 4-({(3S)-4-[(6-chloropyrazolo[1,5-a]pyrimidin-3-yl)carbonyl]-3-methyl-1-piperazinyl}sulfonyl)-3-methylbenzonitrile]	≥ 10 µM	–
Cc1ccc(C(F)(F)F)cc1S(=O)(=O)N1CCN(C(=O)c2cnn3cccnc23)[C@@H](C)C1 [Example 18, 3-[((2S)-2-methyl-4-{[2-methyl-5-(trifluoromethyl)phenyl]sulfonyl}-1-piperazinyl)carbonyl]pyrazolo[1,5-a] pyrimidine]	≥ 31.6 µM	–
Cc1ccc(C(F)(F)F)cc1S(=O)(=O)N1CCN(C(=O)c2cnn3cccnc23)CC1 [Example 19, 3-[(4-{[2-methyl-5-(trifluoromethyl)phenyl]sulfonyl}-1-piperazinyl)carbonyl]pyrazolo[1,5-a] pyrimidine]	≥ 31.6 µM	–
Cc1nn2cccnc2c1C(=O)N1CCN(S(=O)(=O)c2ccc(C(F)(F)F)cc2)C[C@@H]1C [Example 20, 2-methyl-3-[((2S)-2-methyl-4-{[4-(trifluoromethyl)phenyl]sulfonyl}-1-piperazinyl)carbonyl]pyrazolo[1,5-a] pyrimidine]	≥ 10 µM	–
C[C@@H]1CN(C(=O)c2cnn3cccnc23)CCN1S(=O)(=O)c1ccc(OC(F)(F)F)cc1 [Example 21, 3-{[(3R)-3-methyl-4-({4-[(trifluoromethyl)oxy]phenyl}sulfonyl)-1-piperazinyl]carbonyl}pyrazolo[1,5-a] pyrimidine]	≥ 31.6 µM	–
C[C@@H]1CN(S(=O)(=O)c2ccc(OC(F)(F)F)cc2)CCN1C(=O)c1cnn2cccnc12 [Example 22, 3-{[(2R)-2-methyl-4-({4-[(trifluoromethyl)oxy]phenyl}sulfonyl)-1-piperazinyl]carbonyl}pyrazolo[1,5-a] pyrimidine]	≥ 31.6 µM	–
Cc1cnc2c(C(=O)N3CCN(S(=O)(=O)c4ccc(C#N)cc4C)C[C@@H]3C)cnn2c1 [Example 23, 3-methyl-4-({(3S)-3-methyl-4-[(6-methylpyrazolo[1,5-a]pyrimidin-3-yl)carbonyl]-1-piperazinyl}sulfonyl)benzonitrile]	≥ 31.6 µM	–
Cc1cc(C#N)ccc1S(=O)(=O)N1CCN(C(=O)c2c(C)nn3cccnc23)[C@@H](C)C1 [Example 24, 3-methyl-4-({(3S)-3-methyl-4-[(2-methylpyrazolo[1,5-a]pyrimidin-3-yl)carbonyl]-1-piperazinyl}sulfonyl)benzonitrile]	≥ 31.6 µM	–
